Where two headings read alike, the source gives them in different places.
Tests used:
Assay type in all cases: cell-based, Hepatitis C virus
[1] = tested on: HCV genotype 1a H77 strain subgenomic luciferase replicon; experiment: HCV replicon assay, genotype 1a
Method: (§1) The HCV luciferase replicon assay measures the ability of a test compound to inhibit HCV replication in cell culture after 3 days of treatment in a human hepatoma cell line (Huh-7) bearing an HCV replicon containing a luciferase-neomycin phosphotransferase fusion gene. The inhibition of HCV replication was measured by quantification of luciferase protein expression. Briefly, Huh-7 cells containing either the HCV genotype 1a H77 strain or genotype 1b Con1 strain subgenomic luciferase replicon (H1a-luc or Zluc, respectively) were grown in DMEM containing glucose, L-glutamine and sodium pyruvate, 10% fetal bovine serum (FBS), 100 IU/mL penicillin, 100 μg/mL streptomycin, 2 mM GlutaMAX, non-essential amino acids and 0.25 (H1a-luc) or 0.5 (Zluc) mg/mL G418. GlutaMAX was obtained from Invitrogen, Corp.; all other media reagents were obtained from Mediatech, Inc. For dose-response testing, the cells were seeded in 96-well plates at 1×10^4 (H1a-luc) or 7.5×10^3 (Zluc) cells/well in a volume of 50 μL, and incubated at 37° C./5% CO2. Three hours after plating, 50 μL of ten 5-fold serial dilutions of compound were added, and cell cultures were incubated at 37° C./5% CO2 for 72 hours. In all cases, Huh-7 cells lacking the HCV replicon served as negative control. To assess luciferase expression, the media/compound was removed from the plates and ONE-glo Luciferase assay reagent (Promega) was added to each well. The assay plates were shaken for 3 minutes at room temperature and luciferase activity for each well was measured with a 1 sec read time on the Victor^3V multilabel counter using a 700 nm cut-off filter (Perkin Elmer). EC50 values were calculated from dose response curves from the resulting best-fit equations determined by Microsoft Excel and XLfit 4.1 software.

[2] = tested on: HCV 1aY93H mutant replicon; experiment: HCV replicon assay, genotype 1a Y93H mutant
Method: General procedure: The luciferase replicon transient transfection assay measures the ability of a test compound to inhibit the replication of a transiently-transfected HCV luciferase-bearing wild-type or mutant replicon in cured human hepatoma cells (Huh7.5). The inhibition of HCV replication was measured by quantification of luciferase protein expression. This assay has been validated using a panel of genotype 1a and 1b replicons bearing mutations known to be associated with resistance to BMS-790052. Briefly, subconfluent Huh7.5 cells were electroporated with 10 μg of wild-type or mutant luciferase-bearing HCV replicon RNA. The cells were then seeded in 96-well opaque white plates at 3×10^4 cells/well in 150 μL/well and incubated for 4 hrs at 37° C./5% CO2. Ten 1:5 serial dilutions of each test compound were made in media (DMEM containing glucose, L-glutamine and sodium pyruvate, 10% fetal bovine serum, 100 IU/mL penicillin, 100 μg/mL streptomycin, 2 mM GlutaMAX, and 1×MEM non-essential amino acids (Mediatech, Inc. and Invitrogen Corp.)) at concentrations that were 4× higher than the final concentrations to be tested and 50 μL/well was added to the transfected cells. Untreated, mock-transfected cells served as a negative control of luciferase expression. The plates were incubated at 37° C./5% CO2 for 4 days whereupon the media was removed and 50 μL of ONE-glo luciferase substrate (Promega) was added to each well. The plates were agitated on a rotating platform at room temperature for 3 min and read in a Victor^3V microplate reader (Perkin-Elmer) using a 700 nm cut-off filter with a 1 sec read time. EC50 values were calculated from dose response curves from the resulting best-fit equations determined by Microsoft Excel and XLfit 4.1 software.

[3] = tested on: HCV 2b; experiment: HCV replicon assay, genotype 2b
[4] = tested on: HCV genotype 3a NS5A within the 1b-replicon; experiment: HCV replicon assay, genotype 3a (NS5A intergenotypic stable cell line)
Excerpt: The nucleotide sequences of the NS5A region of genotype 2a (GenBank Accession # AB047639), genotype 3a (GenBank Accession # D17763), and genotype 4a (GenBank Accession # DQ418788) were synthesized by an outside vendor. The NS5A region of each of these genotypes included the first 11 amino acids of the protease recognition sequence of genotype 1b, as well as the last 10 amino acids of genotype 1b. The NS5A gene cassettes were excised with site specific restriction endonucleases and ligated into a ZS11-luciferase genotype 1b backbone (backbone contains the genotype 1b NS3 protease, NS4a, NS4b, and NS5b coding regions) with similarly cut restriction enzyme sites. Thus, the newly constructed plasmid contains a genotype 2a-, 3a- or 4a-specific NS5A gene within the 1b-replicon.
These new intergenotypic plasmids were used to establish stable cell lines. RNA was generated from the NS5A intergenotypic plasmids and used in conjunction with a lipofectin reagent to transfect a cured Huh7 cell line. Transfected cells were selected for with G418. After selection has occurred the stable cell lines were propagated, tested for luciferase activity, and RT-PCR with genotype specific primers (either 1a, 2a, 3a, or 4a). Stable cell lines containing the intergenotypic replicon were then fully sequenced and analyzed for proper expression of NS3, NS5A and NS5B proteins.
Drug titration analysis was performed using the luciferase replicon assay described herein.
as §1

[5] = read-out: 1a IC50, HCV genotype 1a
[6] = read-out: 1aY93H IC50, HCV genotype 1a, Y93H mutant
[7] = read-out: 3a IC50, HCV genotype 3a
[8] = Hepatitis C virus, read-out: 1a IC50 (nM), HCV genotype 1a
[9] = Hepatitis C virus, read-out: 1aY93H IC50 (nM), HCV genotype 1a, Y93H mutant
[10] = Hepatitis C virus, read-out: 2b IC50 (nM), HCV genotype 2b

SMILES | IC50 [1, 8] [nM] | IC50 [2, 9] [nM] | IC50 [3, 10] [nM] | other results
CCC1c2ccc(-c3cnc([C@@H]4CCCN4C(=O)[C@@H](NC(=O)OC)C(C)C)[nH]3)cc2Oc2ccc3cc(-c4cnc([C@@H]5CCCN5C(=O)[C@@H](NC(=O)OC)C(C)C)[nH]4)ccc3c21 (single isomer, unassigned) [Compound 6] |  |  |  | IC50 [1, 5]: 0.0027 nM; IC50 [2, 6]: 15 nM; IC50 ([3]; read-out: 2b IC50, HCV genotype 2b): 12.8 nM; IC50 [4, 7]: 1.72 nM
CC(C)(C)OC(=O)N1CC(F)C[C@H]1c1ncc(-c2ccc3c(F)c4oc5ccc(-c6cnc([C@@H]7CC(F)CN7C(=O)OC(C)(C)C)[nH]6)cc5c(=O)c4cc3c2)[nH]1 (stereo in doubt) [Compound 24, di-tert-butyl (2S,4S,2′S,4′S)-2,2′-[(6-fluoro-12-oxo-12H-benzo[b]xanthene-2,9-diyl)bis(1H-imidazole-5,2-diyl)]bis(4-fluoropyrrolidine-1-carboxylate)] | 425 | 2460 |  | 
O=c1c2ccc(-c3cnc([C@@H]4CC(F)CN4)[nH]3)cc2oc2ccc3cc(-c4cnc([C@@H]5C[C@@H](F)CN5)[nH]4)ccc3c12 (stereo in doubt) [Compound 18, 3-{2-[(2S,4R)-4-fluoropyrrolidin-2-yl]-1H-imidazol-5-yl}-9-{2-[(2S,4S)-4-fluoropyrrolidin-2-yl]-1H-imidazol-5-yl}-12H-benzo[a]xanthen-12-one] | 208 | 147 |  | 
CCC1(CC)c2ccc(-c3cnc([C@@H]4CCCN4C(=O)[C@H](NC(=O)OC)C(C)C)[nH]3)cc2Oc2cc3ccc(-c4cnc([C@@H]5CCCN5C(=O)[C@@H](NC(=O)OC)C(C)C)[nH]4)cc3cc21 [Compound 9, methyl [(1R)-1-({(2S)-2-[5-(12,12-diethyl-9-{2-[(2S)-1-{(2S)-2-[(methoxycarbonyl)amino]-3-methylbutanoyl}pyrrolidin-2-yl]-1H-imidazol-5-yl}-12H-benzo[b]xanthen-3-yl)-1H-imidazol-2-yl]pyrrolidin-1-yl}carbonyl)-2-methylpropyl]carbamate] | 0.002 | 3.28 | 4.53 | IC50 ([4]; Hepatitis C virus, read-out: 3a IC50 (nM), HCV genotype 3a): 1.11 nM
COC(=O)N[C@H](C(=O)N1CCC[C@@H]1c1ncc(-c2ccc3oc4c(ccc5cc(-c6cnc([C@H]7CCCN7C(=O)[C@H](NC(=O)OC)C(C)C)[nH]6)ccc54)c(=O)c3c2)[nH]1)C(C)C [Compound 1, methyl [(1R)-1-({(2R)-2-[5-(9-{2-[(2R)-1-{(2S)-2-[(methoxycarbonyl)amino]-3-methylbutanoyl}pyrrolidin-2-yl]-1H-imidazol-5-yl}-7-oxo-7H-benzo[c]xanthen-3-yl)-1H-imidazol-2-yl]pyrrolidin-1-yl}carbonyl)-2-methylpropyl]carbamate] | 0.0204 | 66 |  | 
CC(C)(C)NC(=O)N1CC(F)C[C@H]1c1ncc(-c2ccc3c(ccc4oc5cc(-c6cnc([C@@H]7C[C@@H](F)CN7C(=O)NC(C)(C)C)[nH]6)ccc5c(=O)c43)c2)[nH]1 (stereo in doubt) [Compound 21, (2S,4R,2′S,4′S)-2,2′-[(12-oxo-12H-benzo[a]xanthene-3,9-diyl)bis(1H-imidazole-5,2-diyl)]bis(N-tert-butyl-4-fluoropyrrolidine-1-carboxamide)] | 63.1 | 96.2 | 505 | 
COC(=O)N[C@H](C(=O)N1CCC[C@H]1c1ncc(-c2ccc3c(c2)C(C)c2ccc4cc(-c5cnc([C@@H]6CCCN6C(=O)[C@@H](NC(=O)OC)C(C)C)[nH]5)ccc4c2O3)[nH]1)C(C)C (stereo partly drawn) [Compound 4, methyl [(1S)-1-({(2S)-2-[5-(3-{2-[(2S)-1-{(2S)-2-[(methoxycarbonyl)amino]-3-methylbutanoyl}pyrrolidin-2-yl]-1H-imidazol-5-yl}-7-methyl-7H-benzo[c]xanthen-9-yl)-1H-imidazol-2-yl]pyrrolidin-1-yl}carbonyl)-2-methylpropyl]carbamate] | 0.0057 | 48.8 |  | 
O=c1c2cc(-c3cnc([C@@H]4CC(F)CN4)[nH]3)ccc2oc2c(F)c3ccc(-c4cnc([C@@H]5CC(F)CN5)[nH]4)cc3cc12 (stereo in doubt) [Compound 19, 6-fluoro-2,9-bis{2-[(2S,4S)-4-fluoropyrrolidin-2-yl]-1H-imidazol-5-yl}-12H-benzo[b]xanthen-12-one] | 745 | 1390 |  | 
CC(C)(C)NC(=O)N1CC(F)C[C@H]1c1ncc(-c2ccc3c(F)c4oc5ccc(-c6cnc([C@@H]7CC(F)CN7C(=O)NC(C)(C)C)[nH]6)cc5c(=O)c4cc3c2)[nH]1 (stereo in doubt) [Compound 23, (2S,4S,2′S,4′S)-2,2′-[(6-fluoro-12-oxo-12H-benzo[b]xanthene-2,9-diyl)bis(1H-imidazole-5,2-diyl)]bis(N-tert-butyl-4-fluoropyrrolidine-1-carboxamide)] | 53.5 | 436 | ≥ 1000 | 
COC(=O)N[C@H](C(=O)N1CCC[C@H]1c1ncc(-c2ccc3c(c2)Oc2ccc4cc(-c5cnc([C@@H]6CCCN6C(=O)[C@@H](NC(=O)OC)C(C)C)[nH]5)ccc4c2C3(C)C)[nH]1)C(C)C [Compound 7, methyl [(1S)-1-({(2S)-2-[5-(3-{2-[(2S)-1-{(2S)-2-[(methoxycarbonyl)amino]-3-methylbutanoyl}pyrrolidin-2-yl]-1H-imidazol-5-yl}-12,12-dimethyl-12H-benzo[a]xanthen-9-yl)-1H-imidazol-2-yl]pyrrolidin-1-yl}carbonyl)-2-methylpropyl]carbamate] | 0.0029 | 17.8 | 11 | 
CCC1c2ccc(-c3cnc([C@@H]4CCCN4C(=O)[C@@H](NC(=O)OC)C4CCOCC4)[nH]3)cc2Oc2ccc3cc(-c4cnc([C@@H]5CCCN5C(=O)[C@@H](NC(=O)OC)C5CCOCC5)[nH]4)ccc3c21 (single isomer, unassigned) [Compound 14] |  |  |  | IC50 [1, 5]: 0.0042 nM; IC50 [2, 6]: 0.221 nM; IC50 [4, 7]: 0.034 nM
CC(C)(C)OC(=O)N1CC(F)C[C@H]1c1ncc(-c2ccc3c(ccc4oc5cc(-c6cnc([C@@H]7C[C@@H](F)CN7C(=O)OC(C)(C)C)[nH]6)ccc5c(=O)c43)c2)[nH]1 (stereo in doubt) [Compound 22, di-tert-butyl (2S,4R,2′S,4′S)-2,2′-[(12-oxo-12H-benzo[a]xanthene-3,9-diyl)bis(1H-imidazole-5,2-diyl)]bis(4-fluoropyrrolidine-1-carboxylate)] | 291 | 717 |  | 

Source: patent US10787441B2, “Hepatitis C virus inhibitors” (priority 2016, dated 2020)
